Measurements published in patent US11155517B2, “4-substituted phenylamine derivatives and their use to protect crops by fighting undesired phytopathogenic micoorganisms” (PI INDUSTRIES LTD., priority 2016, dated 2021).

What was measured:
Botrytis cinera = test: Greenhouse Botrytis cinera test in tomato, preventive; format: in vivo; settings: 24 h, plants sprayed one day before inoculation, read-out: Efficacy (% control), disease severity vs untreated check
Alternaria solani [1] = test: Greenhouse Alternaria solani test in tomato, preventive; format: in vivo; settings: 24 h, tomato plants sprayed one day before inoculation, read-out: Efficacy (% control), disease severity vs untreated check
Method: Compounds were dissolved in 2% DMSO/Acetone & then mixed with water to calibrated spray volume of 50 ml. This 50 ml spray solution was poured into the spray bottles for further applications. To test the preventive activity of compounds, healthy young Tomato plants raised in the greenhouse were sprayed with active compound preparation at the stated application rates inside the spray cabinets using hallowcone nozzles. One day after treatment, the plants were inoculated with spore suspension (2% Malt) containing 0.24×10^6 Alternaria solani inoculum. The inoculated plants were then kept in greenhouse chamber at 22-24° C. temperature and 90-95% relative humidity for disease expression. […] Efficacy (% control) of the compounds was calculated by comparing the disease rating in the treatment with untreated control. The sprayed plants were also assessed for compound's phytotoxic effects by recording symptoms like necrosis, chlorosis and stunting.

Pyricularia oryzae = test: microbe, parasite or virus in culture; format: cell-based; settings: 168 h, read-out: % control compared to the untreated check (radial growth)
Rhizoctonia solani = Rhizoctonia solani (rice sheath blight/potato black scurf) in vitro test, radial growth on Potato Dextrose Agar; format: cell-based; settings: 168 h, 300 ppm, seven days, 25° C., read-out: % control compared to the untreated check (radial growth)
Alternaria solani [2] = test: Alternaria solani (early blight of tomato/potato) in vitro test, radial growth on Potato Dextrose Agar; format: cell-based; settings: 168 h, 300 ppm, seven days, 25° C., read-out: % control compared to the untreated check (radial growth)
Septoria lycopersici = Septoria lycopersici (leaf spot of tomato) in vitro test, radial growth on Potato Dextrose Agar; format: cell-based; settings: 168 h, seven days, 25° C., read-out: % control compared to the untreated check (radial growth)
Fusarium culmorum [3] = test: Fusarium culmorum (foot rot of cereals) in vitro test, radial growth on Potato Dextrose Agar; format: cell-based; settings: Fusarium culmorum, 168 h, read-out: % control compared to the untreated check (radial growth)
Botrytis cinerea = Botrytis cinerea (gray mold) in vitro test, radial growth on Potato Dextrose Agar; format: cell-based; settings: 168 h, 300 ppm, seven days, 22° C., read-out: % (control) compared to the untreated check (radial growth)
Colletotrichum capsici = Colletotrichum capsici (anthracnose) in vitro test, radial growth on Potato Dextrose Agar; format: cell-based; settings: Colletotrichum truncatum, 168 h; 300 ppm; seven days, 25° C.; read-out: % control compared to the untreated check (radial growth)
Fusarium culmorum [4] = test: Greenhouse Fusarium culmorum test in wheat, preventive; format: in vivo; settings: 24 h, read-out: Efficacy (% control), disease severity vs untreated check
Method: Compounds were dissolved in 2% DMSO/Acetone & then mixed with water to calibrated spray volume of 50 ml. This 50 ml spray solution was poured into the spray bottles for further applications.
To test the preventive activity of compounds, healthy young wheat plants raised in the greenhouse were sprayed with active compound preparation at the stated application rates inside the spray cabinets using hallowcone nozzles. One day after treatment, the plants were inoculated with spore suspension (2% Malt) containing 2×10^6 Fusarium culmorum inoculum. The inoculated plants were then kept in greenhouse chamber at 24° C. temperature and 80-90% relative humidity for disease expression.
A visual assessment of compound's performance was carried by rating the disease severity (0-100% scale) on treated plants on 3, 7, 10 and 15 days after application. Efficacy (% control) of the compounds was calculated by comparing the disease rating in the treatment with untreated control. The sprayed plants were also assessed for compound's phytotoxic effects by recording symptoms like necrosis, chlorosis and stunting.

Row | SMILES | pest or weed control at 500 ppm (Botrytis cinera) [%] | pest or weed control at 500 ppm (Alternaria solani [1]) [%] | inhibition of growth at 300 ppm (Pyricularia oryzae) [%] | inhibition of growth at 300 ppm (Rhizoctonia solani) [%] | inhibition of growth at 300 ppm (Alternaria solani [2]) [%] | inhibition of growth at 300 ppm (Septoria lycopersici) [%] | inhibition of growth at 300 ppm (Fusarium culmorum [3]) [%] | inhibition of growth at 300 ppm (Botrytis cinerea) [%] | inhibition of growth at 300 ppm (Colletotrichum capsici) [%] | pest or weed control at 500 ppm (Fusarium culmorum [4]) [%]
1 | CCN(C)C=Nc1cc(C)c(C(OC)c2ccccc2)cc1C (centres unmarked) [Compound 2, N-ethyl-N′-(4-(methoxy(phenyl)methyl)-2,5-dimethylphenyl)-N-methylformimidamide] | 70 to 100 | 70 to 100 | > 75 | > 80 | > 75 |  |  |  |  | 
2 | CCN(C)C=Nc1cc(C)c(Cc2ccc(C)cc2)cc1C [Compound 9, N′-(2,5-dimethyl-4-(4-methylbenzyl)phenyl)-N-ethyl-N-methylformimidamide] | 70 to 100 | 70 to 100 | > 75 | > 80 | > 75 | > 70 | 75 | > 80 | > 80 | 
3 | CCN(C)C=Nc1cc(C)c(Cc2ccccc2S(C)(=O)=O)cc1C [Compound 25, N′-(2,5-dimethyl-4-(2-(methylsulfonyl)benzyl)phenyl)-N-ethyl-N-methylformimidamide] | 70 to 100 | 70 to 100 | > 75 | > 80 | > 75 | > 70 |  |  | > 80 | 
4 | CCN(C)C=Nc1cc(C)c(Cc2cccc(Br)c2F)cc1C [Compound 27, N′-(4-(3-bromo-2-fluorobenzyl)-2,5-dimethylphenyl)-N-ethyl-N-methylformimidamide] | 70 to 100 | 70 to 100 | > 75 | > 80 | > 75 | > 70 | 75 | > 80 | > 80 | 
5 | CCN(C)C=Nc1cc(C)c(Cc2cccc(F)c2)cc1C [Compound 29, N-ethyl-N′-(4-(3-fluorobenzyl)-2,5-dimethylphenyl)-N-methylformimidamide] | 70 to 100 | 70 to 100 | > 75 | > 80 | > 75 | > 70 | 75 | > 80 | > 80 | 
6 | CCN(C)C=Nc1cc(C)c(/C(=N\C)c2ccccc2)cc1C [Compound 31, N′-(2,5-dimethyl-4-((Z)-(methylimino)(phenyl)methyl)phenyl)-N-ethyl-N-methylformimidamide] | 70 to 100 | 70 to 100 | > 75 | > 80 | > 75 | > 70 | 75 |  |  | 
7 | Cc1cc(N=CN2CCCCC2)c(C)cc1Cc1ccc(F)c(Cl)c1 [Compound 35, N-(4-(3-chloro-4-fluorobenzyl)-2,5-dimethylphenyl)-1-(piperidin-1-yl)methanimine] |  | 70 to 100 | > 75 | > 80 | > 75 | > 70 |  | > 80 | > 80 | 70 to 100
8 | Cc1cc(N=CN2CCOCC2)c(Cl)cc1Cc1ccccc1Cl [Compound 40, N-(2-chloro-4-(2-chlorobenzyl)-5-methylphenyl)-1-morpholinomethanimine] | 70 to 100 | 70 to 100 |  |  |  |  |  | > 80 |  | 
9 | CNC=Nc1cc(C)c(Cc2cccc(Br)c2F)cc1C [Compound 41, N′-(4-(3-bromo-2-fluorobenzyl)-2,5-dimethylphenyl)-N-methylformimidamide] |  | 70 to 100 | > 75 | > 80 | > 75 | > 70 | 75 | > 80 | > 80 | 70 to 100
10 | CNC=Nc1cc(C)c(Cc2cccc(F)c2)cc1Cl [Compound 42, N′-(2-chloro-4-(3-fluorobenzyl)-5-methylphenyl)-N-methylformimidamide] |  | 70 to 100 | > 75 | > 80 | > 75 | > 70 | 75 | > 80 | > 80 | 70 to 100
11 | CCN(C)C=Nc1cc(C)c(Cc2ccc(F)cc2F)cc1C [Compound 161, N′-(4-(2,4-difluorobenzyl)-2,5-dimethylphenyl)-N-ethyl-N-methylformimidamide] |  | 70 to 100 | > 75 | > 80 | > 75 | > 70 | 75 | > 80 | > 80 | 
12 | CCN(C)C=Nc1cc(F)c(Cc2ccccc2Cl)cc1C [Compound 174, N′-(4-(2-chlorobenzyl)-5-fluoro-2-methylphenyl)-N-ethyl-N-methylformimidamide] |  | 70 to 100 | > 75 | > 80 | > 75 | > 70 | 75 | > 80 | > 80 | 
13 | CCN(C)C=Nc1cc(F)c(Cc2ccc(C)cc2)cc1C [Compound 175, N-ethyl-N′-(5-fluoro-2-methyl-4-(4-methylbenzyl)phenyl)-N-methylformimidamide] |  | 70 to 100 | > 75 | > 80 | > 75 | > 70 | 75 | > 80 | > 80 | 
14 | CCN(C)C=Nc1cc(C)c(Cc2cc(F)cc(Cl)c2)cc1Cl [Compound 176, N′-(2-chloro-4-(3-chloro-5-fluorobenzyl)-5-methylphenyl)-N-ethyl-N-methylformimidamide] |  | 70 to 100 | > 75 | > 80 | > 75 | > 70 | 75 | > 80 | > 80 | 
15 | CCN(C)C=Nc1cc(C)c(Cc2cc(F)ccc2Cl)cc1Cl [Compound 178, N′-(2-chloro-4-(2-chloro-5-fluorobenzyl)-5-methylphenyl)-N-ethyl-N-methylformimidamide] |  | 70 to 100 | > 75 | > 80 | > 75 | > 70 | 75 | > 80 | > 80 | 
16 | CCN(C)C=Nc1cc(C)c(Cc2ccc(Cl)cc2Cl)cc1Cl [Compound 179, N′-(2-chloro-4-(2,4-dichlorobenzyl)-5-methylphenyl)-N-ethyl-N-methylformimidamide] | 70 to 100 | 70 to 100 | > 75 | > 80 | > 75 |  | 75 | > 80 | > 80 | 
17 | CCN(C)C=Nc1cc(C)c(Cc2ccc(F)cc2F)cc1Cl [Compound 180, N′-(2-chloro-4-(2,4-difluorobenzyl)-5-methylphenyl)-N-ethyl-N-methylformimidamide] | 70 to 100 | 70 to 100 | > 75 | > 80 | > 75 |  | 75 | > 80 | > 80 | 
